Measurements from ChEMBL document CHEMBL4842340, “Development of Cagrilintide, a Long-Acting Amylin Analogue” (J Med Chem, 2021).
Values after ≈ are worked out from the molar mass of the structure shown. *1 amine or outer side, *2 acyl side, *3 side chain or, on linkers, in order; H or OH if unused. Where a SMILES comes first, the peptide text is derived from it. Bridges are numbered along the chain shown (N, C = ends). The star is where a group is joined. C20 diacid = O=C(O)CCCCCCCCCCCCCCCCCCC(=O)*; γGlu = O=C(O)[C@H](CCC(=O)[*:2])N[*:1]

What was measured:
Homo sapiens [1] = species on record: Homo sapiens; assay: Ratio of IC50 for displacement of [125I]-calcitonin from human calcitonin receptor expressed in tk-ts 13 cells to IC50 for displacement of [125I]-amylin from human AMY3R (CTR+RAMP3) expressed in BHK-13 cells; format: cell-based
Insulin (Homo sapiens) [2] = target: Insulin (Homo sapiens) (UniProt P01308); assay: Effect on insulin (unknown origin) amyloid fibril formation assessed as peptide recovery in glycyl-glycine buffer at pH 4 measured after 45 hrs by thioflavin-T fluorescence assay relative to control; set-up: concentration or dose not given beside the values
[3] = Solubility of the compound in lactate at pH 4 by UPLC analysis; format: physicochemical; conditions: lactate buffer
[4] = Displacement of [125I]-amylin from human AMY3R (CTR+RAMP3) expressed in BHK-13 cells measured after 120 mins by scintillation proximity assay; format: cell-based
[5] = Agonist activity at rat AMY3R (CT+RAMP3) expressed in tk-ts13 cells assessed as increase in intracellular cAMP level incuabted for 25 mins by CRE luciferase reporter gene assay; format: cell-based; conditions: tk-ts13, 25 min
[6] = Solubility of the compound in bis-tris propane at pH 7.5 by UPLC analysis; format: physicochemical; conditions: bis-tris propane buffer
Insulin (Homo sapiens) [7] = target: Insulin (Homo sapiens) (UniProt P01308); assay: Effect on insulin (unknown origin) amyloid fibril formation assessed as lag time in glycyl-glycine buffer at pH 4 measured after 45 hrs by thioflavin-T fluorescence assay
[8] = Displacement of [125I]-calcitonin from human calcitonin receptor expressed in tk-ts 13 cells measured after 120 mins by scintillation proximity assay; format: cell-based; conditions: tk-ts13
[9] = Solubility of the compound in lactate at pH 5 by UPLC analysis; format: physicochemical; conditions: lactate buffer
Rattus norvegicus [10] = species on record: Rattus norvegicus; assay: Ratio of EC50 for rat calcitonin receptor expressed in BHK-13 cells to EC50 for rat AMY3R (CT+RAMP3) expressed in tk-ts13 cells; format: cell-based
Homo sapiens [11] = species on record: Homo sapiens; assay: Ratio of EC50 for human calcitonin receptor expressed in BHK570 cells to EC50 for human AMY3R (CT+RAMP3) expressed in Hollex1 cells; format: cell-based
Rattus norvegicus [12] = assay: Reduction in food intake in Sprague-Dawley rat at 3 nmol/kg, sc administered as single dose measured after 24 to 48 hrs relative to control; format: functional; set-up: scale not given: the % may be the effect or the level left; conditions: time 24-48 hrs
Rattus norvegicus [13] = species on record: Rattus norvegicus; assay: Ratio of IC50 for displacement of [125I]-calcitonin from rat calcitonin receptor expressed in tk-ts 13 cells to IC50 for displacement of [125I]-amylin from rat AMY3R (CTR+RAMP3) expressed in BHK-13 cells; format: cell-based
[14] = Solubility of the compound in bis-tris propane at pH 7 by UPLC analysis; format: physicochemical; conditions: bis-tris propane buffer
Rattus norvegicus [15] = assay: Reduction in food intake in Sprague-Dawley rat at 3 nmol/kg, sc administered as single dose measured upto 24 hrs relative to control; format: functional; set-up: scale not given: the % may be the effect or the level left; conditions: time hrs <=24
[16] = Agonist activity at human calcitonin receptor expressed in BHK570 cells assessed as increase in intracellular cAMP concentration incubated for 3 hrs in absence of albumin by CRE luciferase reporter gene assay; format: cell-based; conditions: BHK570, 3 h
[17] = Agonist activity at human AMY3R (CT+RAMP3) expressed in Hollex1 cells incubated for 3 hrs by luminescence assay; format: cell-based; conditions: Hollex1, 3 h
[18] = Solubility of the compound in bis-tris propane at pH 6 by UPLC analysis; format: physicochemical; conditions: bis-tris propane buffer
[19] = Solubility of the compound in bis-tris propane at pH 8 by UPLC analysis; format: physicochemical; conditions: bis-tris propane buffer
[20] = Agonist activity at rat calcitonin receptor expressed in BHK-13 cells assessed as increase in intracellular cAMP concentration incubated for 25 mins by CRE luciferase reporter gene assay; format: cell-based; conditions: BHK-13, 25 min
[21] = Solubility of the compound in lactate at pH 3 by UPLC analysis; format: physicochemical; conditions: lactate buffer
[22] = Displacement of [125I]-amylin from rat AMY3R (CTR+RAMP3) expressed in BHK-13 cells measured after 120 mins by scintillation proximity assay; format: cell-based
[23] = Solubility of the compound in bis-tris propane at pH 6.5 by UPLC analysis; format: physicochemical; conditions: bis-tris propane buffer
[24] = Displacement of [125I]-calcitonin from rat calcitonin receptor expressed in tk-ts 13 cells measured after 120 mins by scintillation proximity assay; format: cell-based; conditions: tk-ts13

Chain of Insulin (Homo sapiens) (P01308 whole entry): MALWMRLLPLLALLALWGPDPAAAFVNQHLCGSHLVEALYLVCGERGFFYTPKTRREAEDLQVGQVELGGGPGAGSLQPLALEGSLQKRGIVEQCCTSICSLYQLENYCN

| Activity (Insulin (Homo sapiens) [2]) [%] | solubility [3] [µM] | IC50 [4] [nM] | EC50 [5] [nM] | solubility [6] [µM] | TIME (Insulin (Homo sapiens) [7]) [h] | IC50 [8] [nM] | solubility [9] [µM] | solubility [14] [µM] | EC50 [16] [nM] | EC50 [17] [nM] | solubility [18] [µM] | solubility [19] [µM] | EC50 [20] [nM] | SMILES | Ratio IC50 (Homo sapiens [1]) | Ratio EC50 (Rattus norvegicus [10]) | Ratio EC50 (Homo sapiens [11]) | Activity (Rattus norvegicus [12]) [%] | Ratio IC50 (Rattus norvegicus [13]) | Activity (Rattus norvegicus [15]) [%] | other results |
| --- | --- | --- | --- | --- | --- | --- | --- | --- | --- | --- | --- | --- | --- | --- | --- | --- | --- | --- | --- | --- | --- |
| 100 | 200 (≈ 880 µg/mL) | 0.293 | 0.121 | 200 (≈ 880 µg/mL) | 26 | 0.264 | 200 (≈ 880 µg/mL) | 200 (≈ 880 µg/mL) | 0.067 | 0.091 | 200 (≈ 880 µg/mL) | 200 (≈ 880 µg/mL) | 0.109 | CC[C@H](C)[C@H](NC(=O)[C@@H]1CCCN1C(=O)CNC(=O)[C@H](Cc1ccccc1)NC(=O)[C@H](CC(N)=O)NC(=O)[C@H](CC(N)=O)NC(=O)[C@H](CO)NC(=O)[C@H](CO)NC(=O)[C@H](Cc1c[nH]cn1)NC(=O)[C@H](Cc1cnc[nH]1)NC(=O)[C@H](CC(C)C)NC(=O)[C@H](Cc1ccccc1)NC(=O)[C@H](CCC(=O)O)NC(=O)[C@H](C)NC(=O)[C@H](CC(C)C)NC(=O)[C@H](CCCNC(=N)N)NC(=O)[C@H](CCC(N)=O)NC(=O)[C@@H](NC(=O)[C@H](C)NC(=O)[C@@H]1CSSC[C@H](NC(=O)[C@H](Cc2cnc[nH]2)NC(=O)CC[C@H](NC(=O)CCCCCCCCCCCCCCCCCCC(=O)O)C(=O)O)C(=O)N[C@@H](CC(N)=O)C(=O)N[C@@H]([C@@H](C)O)C(=O)N[C@@H](C)C(=O)N[C@@H]([C@@H](C)O)C(=O)N1)[C@@H](C)O)C(=O)N[C@@H](CC(C)C)C(=O)N1CCC[C@H]1C(=O)N1CCC[C@H]1C(=O)N[C@H](C(=O)N[C@@H](CC(N)=O)C(=O)N[C@H](C(=O)NCC(=O)N[C@@H](CO)C(=O)N[C@@H](CC(N)=O)C(=O)N[C@H](C(=O)N1CCC[C@H]1C(N)=O)[C@@H](C)O)C(C)C)[C@@H](C)O ({C20 diacid-γGlu}-HCNTATCATQRLAEFLHHSSNNFGPILPPTNVGSNTP-NH2; disulfide 2-7) | 1 | 1 | 1 | 67 | 2 | 68 | solubility [21]: 200 µM (≈ 880 µg/mL); IC50 [22]: 0.074 nM; solubility [23]: 200 µM (≈ 880 µg/mL); IC50 [24]: 0.134 nM |
| 26 | 200 (≈ 897 µg/mL) | 0.192 | 0.188 | 200 (≈ 897 µg/mL) | 12 | 0.039 | 200 (≈ 897 µg/mL) | 160 (≈ 717 µg/mL) | 0.107 | 0.121 | 200 (≈ 897 µg/mL) | 200 (≈ 897 µg/mL) | 0.539 | CC[C@H](C)[C@H](NC(=O)[C@@H]1CCCN1C(=O)CNC(=O)[C@H](Cc1ccccc1)NC(=O)[C@H](CC(N)=O)NC(=O)[C@H](CC(N)=O)NC(=O)[C@H](CO)NC(=O)[C@H](CO)NC(=O)[C@H](Cc1cnc[nH]1)NC(=O)[C@H](Cc1cnc[nH]1)NC(=O)[C@H](CC(C)C)NC(=O)[C@H](Cc1ccccc1)NC(=O)[C@H](CCC(=O)O)NC(=O)[C@H](C)NC(=O)[C@H](CC(C)C)NC(=O)[C@H](CCCNC(=N)N)NC(=O)[C@H](CCC(N)=O)NC(=O)[C@@H](NC(=O)[C@H](C)NC(=O)[C@@H]1CSSC[C@H](NC(=O)[C@H](CCCNC(=N)N)NC(=O)CC[C@H](NC(=O)CCCCCCCCCCCCCCCCCCC(=O)O)C(=O)O)C(=O)N[C@@H](CC(N)=O)C(=O)N[C@@H]([C@@H](C)O)C(=O)N[C@@H](C)C(=O)N[C@@H]([C@@H](C)O)C(=O)N1)[C@@H](C)O)C(=O)N[C@@H](CC(C)C)C(=O)N1CCC[C@H]1C(=O)N1CCC[C@H]1C(=O)N[C@H](C(=O)N[C@@H](CC(N)=O)C(=O)N[C@H](C(=O)NCC(=O)N[C@@H](CO)C(=O)N[C@@H](CC(N)=O)C(=O)N[C@H](C(=O)N[C@@H](Cc1ccc(O)cc1)C(N)=O)[C@@H](C)O)C(C)C)[C@@H](C)O ({C20 diacid-γGlu}-RCNTATCATQRLAEFLHHSSNNFGPILPPTNVGSNTY-NH2; disulfide 2-7) | 0.2 | 3 | 1 | 53 | 3 | 56 | solubility [21]: 200 µM (≈ 897 µg/mL); IC50 [22]: 0.029 nM; solubility [23]: 174 µM (≈ 780 µg/mL); IC50 [24]: 0.087 nM |
